Source: US6610677B2, “Pyrazole compounds useful as protein kinase inhibitors” (Vertex Pharmaceuticals Incorporated, priority 2000, dated 2003)
Like-named read-outs stand apart in the source and are kept apart here.

Tests used:
GSK-3β (AA 1-420) = molecular target: T1, GSK-3β (AA 1-420) (Homo sapiens, UniProt P49841); assay: Ki determination for the inhibition of GSK-3 (coupled enzyme system); format: biochemical; details: 20 μM ATP, 300 μM peptide, 20 nM GSK-3β, 30° C
T1 construct: GSK-3β (AA 1-420)
T1 sequence (P49841 whole entry, the tested form may be a part): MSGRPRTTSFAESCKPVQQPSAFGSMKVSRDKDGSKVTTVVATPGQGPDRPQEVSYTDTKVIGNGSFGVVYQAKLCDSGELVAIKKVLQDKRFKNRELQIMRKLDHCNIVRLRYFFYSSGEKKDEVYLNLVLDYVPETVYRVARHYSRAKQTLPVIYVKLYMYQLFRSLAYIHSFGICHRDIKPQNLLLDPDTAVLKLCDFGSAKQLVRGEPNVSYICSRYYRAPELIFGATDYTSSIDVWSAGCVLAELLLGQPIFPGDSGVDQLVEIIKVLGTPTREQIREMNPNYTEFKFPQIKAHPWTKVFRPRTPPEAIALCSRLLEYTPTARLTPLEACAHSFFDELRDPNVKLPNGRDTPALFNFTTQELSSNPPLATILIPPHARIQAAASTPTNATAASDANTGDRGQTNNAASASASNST
Summary of the method: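 Ki values come from reaction rates over 10 min at 30 °C as a function of inhibitor concentration (12-point titration, 0.002–30 μM, 10 min preincubation). GSK-3β (AA 1-420, 20 nM) phosphorylated 300 μM primed peptide with 20 μM ATP; ADP formation followed by coupled NADH oxidation, pH 7.5.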

Aurora-2 = molecular target: T2, Aurora-2 (Homo sapiens, UniProt O14965); assay: Ki determination for the inhibition of Aurora-2 (coupled enzyme assay); format: biochemical; details: 70 nM Aurora-2, peptide LRRASLG, 30° C
T2 sequence (O14965 1-403): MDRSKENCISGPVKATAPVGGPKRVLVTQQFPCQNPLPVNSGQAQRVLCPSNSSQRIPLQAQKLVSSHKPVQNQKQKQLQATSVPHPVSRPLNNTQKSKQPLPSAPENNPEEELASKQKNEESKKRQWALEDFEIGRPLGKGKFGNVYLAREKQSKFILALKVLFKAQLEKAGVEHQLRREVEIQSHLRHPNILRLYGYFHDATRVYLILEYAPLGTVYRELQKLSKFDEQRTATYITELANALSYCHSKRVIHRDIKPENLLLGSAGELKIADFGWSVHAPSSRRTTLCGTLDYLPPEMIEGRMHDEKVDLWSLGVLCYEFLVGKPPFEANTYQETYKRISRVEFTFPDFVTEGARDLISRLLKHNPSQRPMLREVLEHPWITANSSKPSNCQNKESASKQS
Summary of the method: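 Ki came from reaction rates plotted against inhibitor concentration, with rates taken as A340 decrease over 5 min at 30° C. Enzyme (70 nM final) was added after 10 min compound preincubation; stock buffer held […], 800 μM LRRASLG, PK/LDH coupling, pH 7.5.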

human Src kinase = molecular target: T3, human Src kinase (Homo sapiens, UniProt P12931); assay: SRC inhibition assay (radioactivity-based or spectrophotometric assay); format: biochemical; details: assay A or B not specified
T3 construct: full length recombinant human Src kinase; purchased Upstate Biotechnology 14-117; host or cells: baculo viral cells (baculovirus expression system)
T3 sequence (P12931 whole entry): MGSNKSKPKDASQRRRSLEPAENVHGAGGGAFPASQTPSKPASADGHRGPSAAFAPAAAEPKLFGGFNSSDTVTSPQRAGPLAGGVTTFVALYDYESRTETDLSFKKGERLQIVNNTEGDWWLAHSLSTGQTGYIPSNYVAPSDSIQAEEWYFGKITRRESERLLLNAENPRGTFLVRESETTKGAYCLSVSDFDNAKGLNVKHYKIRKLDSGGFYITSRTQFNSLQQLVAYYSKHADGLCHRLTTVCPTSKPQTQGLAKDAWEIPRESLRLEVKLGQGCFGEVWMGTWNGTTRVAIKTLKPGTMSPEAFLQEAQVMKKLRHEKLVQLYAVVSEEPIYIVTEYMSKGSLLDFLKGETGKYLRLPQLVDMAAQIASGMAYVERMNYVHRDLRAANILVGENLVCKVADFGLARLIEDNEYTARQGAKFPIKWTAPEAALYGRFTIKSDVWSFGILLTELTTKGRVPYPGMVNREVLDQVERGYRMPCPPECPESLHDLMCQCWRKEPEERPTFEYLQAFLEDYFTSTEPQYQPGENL
Description: The compounds were evaluated as inhibitors of human Src kinase using either a radioactivity-based assay or spectrophotometric assay. The compounds were assayed as inhibitors of full length recombinant human Src kinase (from Upstate Biotechnology, cat. no. 14-117) expressed and purified from baculo viral cells. […] P-0275). […] In a typical assay, all the reaction components with the exception of ATP were pre-mixed and aliquoted into assay plate wells. Inhibitors dissolved in DMSO were added to the wells to give a final DMSO concentration of 2.5%. The assay plate was incubated at 30° C. for 10 min before initiating the reaction with ^33P-ATP. After 20 min of reaction, the reactions were quenched with 150 μl of 10% trichloroacetic acid (TCA) containing 20 mM Na3PO4. The quenched samples were then transferred to a 96-well filter plate (Whatman, UNI-Filter GF/F Glass Fiber Filter, cat no. 7700-3310) installed on a filter plate vacuum manifold. Filter plates were washed four times with 10% TCA containing 20 mM Na3PO4 and then 4 times with methanol. 200 μl of scintillation fluid was then added to each well. The plates were sealed and the amount of radioactivity associated with the filters was quantified on a TopCount scintillation counter. The radioactivity incorporated was plotted as a function of the inhibitor concentration. The data was fitted to a competitive inhibition kinetics model to get the Ki for the compound. The ADP produced from ATP by the human recombinant Src kinase-catalyzed phosphorylation of poly Glu-Tyr substrate was quanitified using a coupled enzyme assay (Fox et al (1998) Protein Sci 7, 2249). In this assay one molecule of NADH is oxidised to NAD for every molecule of ADP produced in the kinase reaction. The disappearance of NADH can be conveniently followed at 340 nm. […] In a typical assay, all the reaction components with the exception of ATP were pre-mixed and aliquoted into assay plate wells. Inhibitors dissolved in DMSO were added to the wells to give a final DMSO concentration of 2.5%. […] The absorbance change at 340 nm with time, the rate of the reaction, was monitored on a molecular devices plate reader. The data of rate as a function of the inhibitor concentration was fitted to compettive inhibition kinetics model to get the Ki for the compound.

activated ERK2 = activated ERK2 (Homo sapiens, UniProt P28482); assay: ERK inhibition assay (spectrophotometric coupled-enzyme assay); format: biochemical; details: 10 nM activated ERK2, 65 μM ATP, 200 μM erktide; read-out: Ki value for ERK-2
activated ERK2, sequence (P28482 whole entry): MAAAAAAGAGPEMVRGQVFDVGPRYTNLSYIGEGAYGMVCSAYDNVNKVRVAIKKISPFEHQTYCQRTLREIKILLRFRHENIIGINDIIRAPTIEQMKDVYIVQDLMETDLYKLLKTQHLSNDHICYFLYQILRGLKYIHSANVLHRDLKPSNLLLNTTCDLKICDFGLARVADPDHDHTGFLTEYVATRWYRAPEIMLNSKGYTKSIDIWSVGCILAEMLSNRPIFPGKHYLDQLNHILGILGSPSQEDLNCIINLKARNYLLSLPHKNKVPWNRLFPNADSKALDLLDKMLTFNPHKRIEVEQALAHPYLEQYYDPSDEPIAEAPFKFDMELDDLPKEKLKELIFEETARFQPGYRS
Description: Compounds were assayed for the inhibition of ERK2 by a spectrophotometric coupled-enzyme assay (Fox et al (1998) Protein Sci 7, 2249). In this assay, a fixed concentration of activated ERK2 (10 nM) was incubated with various concentrations of the compound in DMSO (2.5%) for 10 min. at 30° C. in 0.1 M HEPES buffer, pH 7.5, containing 10 mM MgCl2, 2.5 mM phosphoenolpyruvate, 200 μM NADH, 150 μg/mL pyruvate kinase, 50 μg/mL lactate dehydrogenase, and 200 μM erktide peptide. The reaction was initiated by the addition of 65 μM ATP. The rate of decrease of absorbance at […] was monitored. The IC50 was evaluated from the rate data as a function of inhibitor concentration.

| SMILES | melting point [°C] | Ki (GSK-3β (AA 1-420)) [nM] | Ki (Aurora-2) [nM] | Ki (human Src kinase; read-out: Ki value on SRC) [nM] | Ki (activated ERK2) [nM] | Ki (human Src kinase; read-out: Ki value for SRC) [nM] |
| --- | --- | --- | --- | --- | --- | --- |
| Cc1cc(Nc2nc(-c3ccc(Br)cc3)nc3ccccc23)[nH]n1 [III-34, [2-(4-Bromophenyl)-quinazolin-4-yl]-(5-methyl-2H-pyrazol-3-yl)-amine] | 262 to 265 | < 100 | < 100 | < 100 | – | – |
| Cc1cc(Nc2nc(-c3ccc(N(C)C)cc3)nc3ccccc23)[nH]n1 [III-44, [2-(4-Dimethylaminophenyl)-quinazolin-4-yl]-(5-methyl-2H-pyrazol-3-yl)-amine] | – | 100 to 1000 | < 100 | < 100 | – | – |
| c1ccc2c(c1)CCN(c1nc(Nc3cc(C4CC4)n[nH]3)c3ccccc3n1)C2 [III-118, (5-Cyclopropyl-2H-pyrazol-3-yl)-[2-(3,4-dihydro-1H-isoquinolin-2-yl)-quinazolin-4-yl]-amine] | 182 to 184 | < 100 | < 100 | – | < 1000 | – |
| Cc1cc(Nc2nc(N3CCCCCC3)nc3ccccc23)[nH]n1 [III-109] | 269 | < 100 | < 100 | – | < 1000 | – |
| Cc1cc(Nc2nc(-c3ccc(Cl)c(Cl)c3)nc3ccccc23)[nH]n1 [III-33, [2-(3,4-Dichlorophenyl)-quinazolin-4-yl]-(5-methyl-2H-pyrazol-3-yl)-amine] | 274 | < 100 | < 100 | < 100 | – | – |
| CC1CCN(c2nc(Nc3cc(C4CC4)n[nH]3)c3ccccc3n2)CC1 [III-111, (5-Cyclopropyl-2H-pyrazol-3-yl)-[2-(4-methylpiperidin-1-yl)-quinazolin-4-yl]-amine] | – | < 100 | < 100 | – | < 1000 | – |
| c1ccc(COCCCc2cc(Nc3nc(-c4ccccc4)nc4ccccc34)[nH]n2)cc1 [III-78, [5-(3-Benzyloxyprop-1-yl)-2H-pyrazol-3-yl]-(2-phenyl-quinazolin-4-yl)-amine] | 177 to 178 | 100 to 1000 | < 100 | < 100 | – | – |
| Clc1ccc(-c2nc(Nc3cc(C4CC4)n[nH]3)c3ccccc3n2)cc1 [III-42, [2-(4-Chlorophenyl)-quinazolin-4-yl]-(5-cyclopropyl-2H-pyrazol-3-yl)-amine] | – | < 100 | < 100 | < 100 | – | – |
| Cc1cc(Nc2nc(-c3ccc(I)cc3)nc3ccccc23)[nH]n1 [III-32, [2-(4-Iodophenyl)-quinazolin-4-yl]-(5-methyl-2H-pyrazol-3-yl)-amine] | – | – | < 100 | < 100 | – | – |
| CCCc1cc(Nc2nc(-c3ccccc3)nc3ccccc23)[nH]n1 [III-66, (2-Phenyl-quinazolin-4-yl)-(5-propyl-2H-pyrazol-3-yl)-amine] | 204 to 205 | < 100 | < 100 | < 100 | – | – |
| COc1cccc(-c2nc(Nc3cc(C)n[nH]3)c3ccccc3n2)c1 [III-45, [2-(3-Methoxyphenyl)-quinazolin-4-yl]-(5-methyl-2H-pyrazol-3-yl)-amine] | 226 | < 100 | < 100 | < 100 | – | – |
| C#Cc1ccc(-c2nc(Nc3cc(C)n[nH]3)c3ccccc3n2)cc1 [III-48, [2-(4-Ethynylphenyl)-quinazolin-4-yl]-(5-methyl-2H-pyrazol-3-yl)-amine] | – | < 100 | < 100 | < 100 | – | – |
| Cc1cc(Nc2nc(-c3ccc(-c4ccccc4)cc3)nc3ccccc23)[nH]n1 [III-47, (2-Biphenyl-4-yl-quinazolin-4-yl)-(5-methyl-2H-pyrazol-3-yl)-amine] | – | < 100 | < 100 | < 100 | – | – |
| OCCCc1cc(Nc2nc(-c3ccccc3)nc3ccccc23)[nH]n1 [III-76, [5-(3-Hydroxyprop-1-yl)-2H-pyrazol-3-yl]-(2-phenyl-quinazolin-4-yl)-amine] | 164 to 165 | < 100 | < 100 | < 100 | – | – |
| CCc1cc(Nc2nc(-c3ccccc3)nc3ccccc23)[nH]n1 [III-65] | 221 to 222 | < 100 | < 100 | < 100 | – | – |
| CCSc1ccc(-c2nc(Nc3cc(C)n[nH]3)c3ccccc3n2)cc1 [III-39, [2-(4-Ethylsulfanylphenyl)-quinazolin-4-yl]-(5-methyl-2H-pyrazol-3-yl)-amine] | 229 to 231 | < 100 | < 100 | < 100 | – | – |
| Cc1cc(Nc2nc(-c3ccc(Cl)cc3)nc3ccccc23)[nH]n1 [III-35, [2-(4-Chlorophenyl)-quinazolin-4-yl]-(5-methyl-2H-pyrazol-3-yl)-amine] | > 300 | < 100 | < 100 | < 100 | – | – |
| Cc1cc(Nc2nc(-c3cccc(I)c3)nc3ccccc23)[nH]n1 [III-38, [2-(3-Iodophenyl)-quinazolin-4-yl]-(5-methyl-2H-pyrazol-3-yl)-amine] | 234 to 235 | < 100 | < 100 | < 100 | – | – |
| NCCCc1cc(Nc2nc(-c3ccccc3)nc3ccccc23)[nH]n1 [III-79, [5-(3-Aminoprop-1-yl)-2H-pyrazol-3-yl]-(2-phenyl-quinazolin-4-yl)-amine] | 205 to 207 | – | 1000 to 20000 | – | – | 1000 to 6000 |
| Cc1cc(Nc2nc(-c3ccc(C#N)cc3)nc3ccccc23)[nH]n1 [III-37, [2-(4-Cyanophenyl)-quinazolin-4-yl]-(5-methyl-2H-pyrazol-3-yl)-amine] | 263 | < 100 | < 100 | < 100 | – | – |
| c1ccc(-c2nc(Nc3cc(C4CCCC4)n[nH]3)c3ccccc3n2)cc1 [III-70, (5-Cyclopentyl-2H-pyrazol-3-yl)-(2-phenyl-quinazolin-4-yl)-amine] | 240 to 241 | < 100 | < 100 | < 100 | – | – |
| Cc1cc(Nc2nc(-c3ccccc3)nc3ccccc23)[nH]n1 [III-31, (5-Methyl-2H-pyrazol-3-yl)-(2-phenyl-quinazolin-4-yl)-amine] | – | < 100 | < 100 | < 100 | – | – |
| C#Cc1cccc(-c2nc(Nc3cc(C)n[nH]3)c3ccccc3n2)c1 [III-49, [2-(3-Ethynylphenyl)-quinazolin-4-yl]-(5-methyl-2H-pyrazol-3-yl)-amine] | 204 to 207 | < 100 | < 100 | < 100 | – | – |
